Test results: patent publication US20220153734A1, “Pyrazolopyridine Compounds For IRE1 Inhibition” (Optikira, LLC, priority 2019, published 2022)
pIC50: −log10 of the molar value.

Experiments:
IRE1α = biological target: T1, IRE1α (Homo sapiens, UniProt O75460); test: Biochemical assay: inhibition of RNase activity of IRE1α; details: enzyme 0.325 nM, substrate 100 nM, 20 minutes
T1 construct: purchased Signal Chem E31-11G
Summary of the method: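 Recombinant IRE1α (0.325 nM final) pre-incubated 30 min at room temperature with compounds (10-point ½-log series, duplicate, 4% DMSO final). Then 100 nM fluorophore/quencher-labelled RNA substrate added in 50 mM Tris, 0.5 mM MgCl2, 10 mM KCl, 2 mM DTT. Urea stop after 20 min; fluorescence read; IC50 from sigmoidal fit.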

[1] = system: ARPE-19 cells stably expressing XBP1 (a.a. 1-376); test: Cellular XBP1 splicing assay (NanoLuc luciferase, thapsigargin); assay type: cell-based; details: thapsigargin 150 nM
Summary of the method: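 ARPE-19 cells carrying an XBP1(1-376)-NanoLuc splicing reporter were pretreated with compound (10-point ½-log series, 0.117% DMSO) for 30 min, then stressed with 150 nM thapsigargin for 4 h at 37° C. Luminescence was read, and IC50 values came from sigmoidal fits of percent inhibition of control.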

T1 sequence (O75460 468-977 limits assumed): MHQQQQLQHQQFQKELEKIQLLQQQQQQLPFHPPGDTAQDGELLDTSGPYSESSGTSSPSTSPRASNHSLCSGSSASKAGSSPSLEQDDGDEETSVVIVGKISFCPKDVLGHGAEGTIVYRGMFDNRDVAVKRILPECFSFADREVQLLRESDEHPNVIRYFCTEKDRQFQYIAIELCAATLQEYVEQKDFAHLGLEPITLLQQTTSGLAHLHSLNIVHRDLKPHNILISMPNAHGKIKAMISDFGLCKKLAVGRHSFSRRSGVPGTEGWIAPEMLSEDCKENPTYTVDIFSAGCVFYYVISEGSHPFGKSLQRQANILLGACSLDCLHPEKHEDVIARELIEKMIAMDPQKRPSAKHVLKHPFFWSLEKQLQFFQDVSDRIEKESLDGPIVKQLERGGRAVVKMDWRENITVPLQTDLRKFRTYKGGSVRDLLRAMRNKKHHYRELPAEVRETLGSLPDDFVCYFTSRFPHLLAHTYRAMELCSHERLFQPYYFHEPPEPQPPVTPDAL

How did the pIC50 (IRE1α) turn out when `COCCNC1CC=C(c2cnc(N)c3c(-c4ccc(NS(=O)(=O)Cc5ccccc5Cl)c(F)c4)nn(C(C)C)c23)CC1` (single isomer, unassigned) [Compound B54, N-(4-(4-amino-1-isopropyl-7-(4-((2-methoxyethyl)amino)cyclohex-1-en-1-yl)-1H-pyrazolo[4,3-c]pyridin-3-yl)-2-fluorophenyl)-1-(2-chlorophenyl)methanesulfonamide] was run?
The pIC50 was 8.70.

What about the pIC50 ([1]; 4 hour) of the same molecule?
Its pIC50 is 7.55.

Which results are given for `COCCNC1CC=C(c2cnc(N)c3c(-c4ccc(NS(=O)(=O)Cc5ccccc5Cl)c(F)c4)nn(C(C)C)c23)CC1` (single isomer, unassigned) [Compound B55, N-(4-(4-amino-1-isopropyl-7-(4-((2-methoxyethyl)amino)cyclohex-1-en-1-yl)-1H-pyrazolo[4,3-c]pyridin-3-yl)-2-fluorophenyl)-1-(2-chlorophenyl)methanesulfonamide]?
pIC50 (IRE1α): 9.05; pIC50 ([1]; 4 hour): 8.05

What does the source list for `CC(C)n1nc(-c2ccc(NS(=O)(=O)c3ccccc3F)c(F)c2)c2c(N)ncc(C3=CCC(NC4COC4)CC3)c21` (single isomer, unassigned) [Compound B58, N-(4-(4-amino-1-isopropyl-7-(4-(oxetan-3-ylamino)cyclohex-1-en-1-yl)-1H-pyrazolo[4,3-c]pyridin-3-yl)-2-fluorophenyl)-2-fluorobenzenesulfonamide]?
pIC50 (IRE1α): 6.92; pIC50 ([1]; 4 hour): 6.60

What does the source list for `CCn1nc(-c2ccc(NS(=O)(=O)c3ccccc3Cl)c(F)c2)c2c(N)ncc(C3=CCC(NC4COC4)CC3)c21` (single isomer, unassigned) [Compound B61, N-(4-(4-amino-1-ethyl-7-(4-(oxetan-3-ylamino)cyclohex-1-en-1-yl)-1H-pyrazolo[4,3-c]pyridin-3-yl)-2-fluorophenyl)-2-chlorobenzenesulfonamide]?
pIC50 (IRE1α): 7.47; pIC50 ([1]; 4 hour): 6.96

How did the pIC50 (IRE1α) turn out when `CCn1nc(-c2ccc(NS(=O)(=O)c3ccccc3Cl)c(F)c2)c2c(N)ncc(C3=CCC(NC4COC4)CC3)c21` (single isomer, unassigned) [Compound B62, N-(4-(4-amino-1-ethyl-7-(4-(oxetan-3-ylamino)cyclohex-1-en-1-yl)-1H-pyrazolo[4,3-c]pyridin-3-yl)-2-fluorophenyl)-2-chlorobenzenesulfonamide] was run?
Its pIC50 is 7.12.

What about the pIC50 ([1]; 4 hour) of the same molecule?
Its pIC50 is 6.40.

`COCCN[C@H]1CC[C@H](c2cnc(N)c3c(-c4cc(F)c(NS(=O)(=O)c5cc(OC)ccc5Cl)cc4F)nn(C(C)C)c32)CC1` [Compound A2, N-(4-(4-amino-1-isopropyl-7-((1r,4r)-4-((2-methoxyethyl)amino)cyclohexyl)-1H-pyrazolo[4,3-c]pyridin-3-yl)-2,5-difluorophenyl)-2-chloro-5-methoxybenzenesulfonamide] was tested. Which pIC50 (IRE1α) did it give?
Its pIC50 is 8.34.

And the pIC50 ([1]; Homo sapiens, ARPE-19, 4 h)?
Its pIC50 is 8.52.

`CC(C)n1nc(-c2cc(F)c(NS(=O)(=O)c3ccccc3F)cc2F)c2c(N)ncc([C@H]3CC[C@H](N4CCOCC4)CC3)c21` [Compound A3] was tested. Which pIC50 (IRE1α) did it give?
The pIC50 was 7.80.

What about the pIC50 ([1]; Homo sapiens, ARPE-19, 4 h) of the same molecule?
The pIC50 was 7.82.

`COCCN[C@H]1CC[C@H](c2cnc(N)c3c(-c4cc(F)c(NS(=O)(=O)c5cc(Cl)ccc5F)cc4F)nn(C(C)C)c32)CC1` [Compound A4, N-(4-(4-amino-1-isopropyl-7-((1r,4r)-4-((2-methoxyethyl)amino)cyclohexyl)-1H-pyrazolo[4,3-c]pyridin-3-yl)-2,5-difluorophenyl)-5-chloro-2-fluorobenzenesulfonamide] was tested. Which pIC50 (IRE1α) did it give?
The pIC50 was 8.89.

And the pIC50 ([1]; Homo sapiens, ARPE-19, 4 h)?
The pIC50 was 8.00.

With `COCCN[C@H]1CC[C@H](c2cnc(N)c3c(-c4cc(F)c(NS(=O)(=O)c5cc(OC(F)F)ccc5F)cc4F)nn(C(C)C)c32)CC1` [Compound A5, N-(4-(4-amino-1-isopropyl-7-((1r,4r)-4-((2-methoxyethyl)amino)cyclohexyl)-1H-pyrazolo[4,3-c]pyridin-3-yl)-2,5-difluorophenyl)-5-(difluoromethoxy)-2-fluorobenzenesulfonamide] as the molecule, how does the pIC50 (IRE1α) read?
Its pIC50 is 8.72.

And the pIC50 ([1]; Homo sapiens, ARPE-19, 4 h)?
Its pIC50 is 7.60.

`COCCN[C@H]1CC[C@H](c2cnc(N)c3c(-c4ccc(NS(=O)(=O)c5ccccc5F)c(F)c4)nn(C(C)C)c32)CC1` [Compound A6, N-(4-(4-amino-1-isopropyl-7-((1r,4r)-4-((2-methoxyethyl)amino)cyclohexyl)-1H-pyrazolo[4,3-c]pyridin-3-yl)-2-fluorophenyl)-2-fluorobenzenesulfonamide] was tested. Which pIC50 (IRE1α) did it give?
The pIC50 was 8.59.

And the pIC50 ([1]; Homo sapiens, ARPE-19, 4 h)?
Its pIC50 is 8.57.

Which results are given for `COCCN[C@H]1CC[C@H](c2cnc(N)c3c(-c4cc(F)c(NS(=O)(=O)c5cccc(OC)c5F)cc4F)nn(C(C)C)c32)CC1` [Compound A7, N-(4-(4-amino-1-isopropyl-7-((1r,4r)-4-((2-methoxyethyl)amino)cyclohexyl)-1H-pyrazolo[4,3-c]pyridin-3-yl)-2,5-difluorophenyl)-2-fluoro-3-methoxybenzenesulfonamide]?
pIC50 (IRE1α): 8.54; pIC50 ([1]; Homo sapiens, ARPE-19, 4 h): 7.62

With `CCOc1ccc(F)c(S(=O)(=O)Nc2cc(F)c(-c3nn(C(C)C)c4c3c(N)ncc4[C@H]3CC[C@H](NCCOC)CC3)cc2F)c1` [Compound A8, N-(4-(4-amino-1-isopropyl-7-((1r,4r)-4-((2-methoxyethyl)amino)cyclohexyl)-1H-pyrazolo[4,3-c]pyridin-3-yl)-2,5-difluorophenyl)-5-ethoxy-2-fluorobenzenesulfonamide] as the molecule, how does the pIC50 (IRE1α) read?
Its pIC50 is 8.72.

What about the pIC50 ([1]; Homo sapiens, ARPE-19, 4 h) of the same molecule?
The pIC50 was 8.41.

How did the pIC50 (IRE1α) turn out when `COCCN[C@H]1CC[C@H](c2cnc(N)c3c(-c4cc(F)c(NS(=O)(=O)c5ccc(OC)cc5)cc4F)nn(C(C)C)c32)CC1` [Compound A9, N-(4-(4-amino-1-isopropyl-7-((1r,4r)-4-((2-methoxyethyl)amino)cyclohexyl)-1H-pyrazolo[4,3-c]pyridin-3-yl)-2,5-difluorophenyl)-4-methoxybenzenesulfonamide] was run?
The pIC50 was 7.70.

And the pIC50 ([1]; Homo sapiens, ARPE-19, 4 h)?
The pIC50 was 6.96.

How did the pIC50 (IRE1α) turn out when `COCCN[C@H]1CC[C@H](c2cnc(N)c3c(-c4cc(F)c(NS(=O)(=O)c5ccccc5OC)cc4F)nn(C(C)C)c32)CC1` [Compound A10, N-(4-(4-amino-1-isopropyl-7-((1r,4r)-4-((2-methoxyethyl)amino)cyclohexyl)-1H-pyrazolo[4,3-c]pyridin-3-yl)-2,5-difluorophenyl)-2-methoxybenzenesulfonamide] was run?
Its pIC50 is 6.62.

And the pIC50 ([1]; Homo sapiens, ARPE-19, 4 h)?
The pIC50 was 7.72.

With `COCCN[C@H]1CC[C@H](c2cnc(N)c3c(-c4cc(F)c(NS(=O)(=O)c5cccc(OC)c5)cc4F)nn(C(C)C)c32)CC1` [Compound A11, N-(4-(4-amino-1-isopropyl-7-((1r,4r)-4-((2-methoxyethyl)amino)cyclohexyl)-1H-pyrazolo[4,3-c]pyridin-3-yl)-2,5-difluorophenyl)-3-methoxybenzenesulfonamide] as the molecule, how does the pIC50 (IRE1α) read?
The pIC50 was 8.05.

What about the pIC50 ([1]; Homo sapiens, ARPE-19, 4 h) of the same molecule?
The pIC50 was 7.82.

Which results are given for `CC(C)n1nc(-c2ccc(NS(=O)(=O)c3ccccc3F)c(F)c2)c2c(N)ncc([C@H]3CC[C@@H](NC4COC4)CC3)c21` [Compound A12, N-(4-(4-amino-1-isopropyl-7-((1s,4s)-4-(oxetan-3-ylamino)cyclohexyl)-1H-pyrazolo[4,3-c]pyridin-3-yl)-2-fluorophenyl)-2-fluorobenzenesulfonamide]?
pIC50 (IRE1α): 6.36; pIC50 ([1]; Homo sapiens, ARPE-19, 4 h): 5.85

With `COCCN[C@H]1CC[C@H](c2cnc(N)c3c(-c4cc(F)c(NS(=O)(=O)c5ccc(F)c(OC)c5)cc4F)nn(C(C)C)c32)CC1` [Compound A13, N-(4-(4-amino-1-isopropyl-7-((1r,4r)-4-((2-methoxyethyl)amino)cyclohexyl)-1H-pyrazolo[4,3-c]pyridin-3-yl)-2,5-difluorophenyl)-4-fluoro-3-methoxybenzenesulfonamide] as the molecule, how does the pIC50 (IRE1α) read?
Its pIC50 is 7.77.

And the pIC50 ([1]; Homo sapiens, ARPE-19, 4 h)?
The pIC50 was 7.11.

`COCCN[C@H]1CC[C@H](c2cnc(N)c3c(-c4cc(F)c(NS(=O)(=O)c5ccc(Cl)cc5)cc4F)nn(C(C)C)c32)CC1` [Compound A14, N-(4-(4-amino-1-isopropyl-7-((1r,4r)-4-((2-methoxyethyl)amino)cyclohexyl)-1H-pyrazolo[4,3-c]pyridin-3-yl)-2,5-difluorophenyl)-4-chlorobenzenesulfonamide] was tested. Which pIC50 (IRE1α) did it give?
The pIC50 was 7.68.

And the pIC50 ([1]; Homo sapiens, ARPE-19, 4 h)?
Its pIC50 is 6.62.

`COCCN[C@H]1CC[C@H](c2cnc(N)c3c(-c4cc(F)c(NS(=O)(=O)c5ccc(F)cc5Cl)cc4F)nn(C(C)C)c32)CC1` [Compound A15, N-(4-(4-amino-1-isopropyl-7-((1r,4r)-4-((2-methoxyethyl)amino)cyclohexyl)-1H-pyrazolo[4,3-c]pyridin-3-yl)-2,5-difluorophenyl)-2-chloro-4-fluorobenzenesulfonamide] was tested. Which pIC50 (IRE1α) did it give?
Its pIC50 is 8.18.

What about the pIC50 ([1]; Homo sapiens, ARPE-19, 4 h) of the same molecule?
Its pIC50 is 7.89.

With `COCCN[C@H]1CC[C@H](c2cnc(N)c3c(-c4cc(F)c(NS(=O)(=O)c5ccc(Cl)cc5F)cc4F)nn(C(C)C)c32)CC1` [Compound A16, N-(4-(4-amino-1-isopropyl-7-((1r,4r)-4-((2-methoxyethyl)amino)cyclohexyl)-1H-pyrazolo[4,3-c]pyridin-3-yl)-2,5-difluorophenyl)-4-chloro-2-fluorobenzenesulfonamide] as the molecule, how does the pIC50 (IRE1α) read?
The pIC50 was 8.11.

What about the pIC50 ([1]; Homo sapiens, ARPE-19, 4 h) of the same molecule?
The pIC50 was 7.11.

`COCCN[C@H]1CC[C@H](c2cnc(N)c3c(-c4cc(F)c(NS(=O)(=O)Cc5ccc(F)cc5)cc4F)nn(C(C)C)c32)CC1` [Compound A17, N-(4-(4-amino-1-isopropyl-7-((1r,4r)-4-((2-methoxyethyl)amino)cyclohexyl)-1H-pyrazolo[4,3-c]pyridin-3-yl)-2,5-difluorophenyl)-1-(4-fluorophenyl)methanesulfonamide] was tested. Which pIC50 (IRE1α) did it give?
Its pIC50 is 9.05.

What about the pIC50 ([1]; Homo sapiens, ARPE-19, 4 h) of the same molecule?
The pIC50 was 7.92.

Which results are given for `COCCN[C@H]1CC[C@H](c2cnc(N)c3c(-c4ccc(NS(=O)(=O)c5ccccc5F)cc4F)nn(C(C)C)c32)CC1` [Compound A18]?
pIC50 (IRE1α): 7.92; pIC50 ([1]; Homo sapiens, ARPE-19, 4 h): 7.43
